Patent publication US6921768B2, “Cytostatic cerium compounds” (Faustus Forschungs Cie. Translational Cancer Research GmbH, priority 2001, dated 2005)

Legend:
[1] = system: over 50 human tumour cell lines; conditions: 48-h sulphurhodamine B-assay
Experimental: First in vitro tests were carried out at the National Cancer Institute (Bethesda, Md., USA).

[2] = system: 13 human tumour xenografts and 10 human tumour cell lines; conditions: propidium iodide assay
[3] = mean over more than 50 human tumour cell lines
[4] = mean over 13 human tumour xenografts and 10 human tumour cell lines

## O.[Cl-].[Cl-].[Cl][Ce+2].c1cnc2c(c1)ccc1cccnc12.c1cnc2c(c1)ccc1cccnc12 [KP 776, trans-[aquachlorobis(1,10-phenantrolin)cerium(III)]-dichloride]
[1]; [3]
  Mean Gl50: 0.61 µg/mL
  Mean LC50: 39.4 µg/mL
[1]; result in words
  activity on single ovarian, kidney cell and parvicellular and non-parvicellular bronchial carcinoma cell lines: Above average activities
  selectivity among tumour cell line types: a certain selectivity for malignant melanoma was evident
[1]; read-out: Mean Gl50, mean over more than 50 human tumour cell lines
  IC50: 0.98 µM
[1]; read-out: Mean LC50, mean over more than 50 human tumour cell lines
  CC50: 63.1 µM
[2]; [4]
  Mean IC50: 1.20 µg/mL
  Mean IC90: 7.27 µg/mL
[2]; result in words
  tumour type with strongest effectiveness: the strongest effectiveness was found on a melanoma (xenograft)
[2]; read-out: Mean IC50, mean over 13 human tumour xenografts and 10 human tumour cell lines
  IC50: 1.92 µM
[2]; read-out: Mean IC90, mean over 13 human tumour xenografts and 10 human tumour cell lines
  IC90: 11.6 µM
